A short description of this series: In vivo murine PK. To be noted: mouse, plasma, CD1 mice, 10 mg/kg, mean; for half-life: read-out: Terminal t1/2 (converted). The protocol:
Ta b l e S2. in vivo murine PK parameters for 6g [SU1349]. In vivo PK studies were performed by Shanghai ChemPartner Co. Ltd. (Shanghai, 201203 CN) Each route of administration involved three CD1 mice all receiving a single dose, with mean values reported. The IV/IP dosing solution was prepared in 10% DMAC+ 10% Solutol HS15+ 80% (15% of HP-β-CD) in water. BQL: Below quantiϐiable limit of 1 ng/mL for SU1349 in CD1 mouse plasma. All BQL data was excluded from mean value concentration and graphing. Plasma concentrations were determined on an LCMSMS-010 (API4000, triple quadruple) instrument using Positive Ion, ESI MS conditions, with deaxamethasone as an internal standard. Intravenous time points were taken at 5 min, 15 min, 30 min, 1, 2, 4, 8, and 24 hours and intraperitoneal time points were taken at 15 min, 30 min, 1, 2, 4, 6, 8, […]
Administration Dose Mean PK parameters
Clearance Terminal Vss Cmax Tmax F

Like-named read-outs stand apart in the source and are kept apart here.

For the compound `Nc1n[nH]c2ccc(-c3ccnc4[nH]c(-c5ccnc(OCc6ccccc6)c5)cc34)cc12` [Compound 6g [SU1349]], for the setting “ip, I.P.”, the Cmax (usually the maximum level reached in the sampled fluid or tissue) amounted to 199 ng/mL; the Tmax – broadly, the time at which the peak concentration occurs – is 0.44 h; the bioavailability (usually dose-corrected exposure relative to a reference, in per cent) amounted to 9.3%; the half-life is 3.02 h. Under “iv, I.V.”, the clearance (usually a measure of how efficiently the substance is removed, as volume per time) was determined as 16.7 mL/min/kg and the half-life was 4.18 h. Further, the Vd (iv, I.V., read-out: Vss) came to 0.39 L/kg.

For the origin of these results see publication PMC11314561, “Design and Synthesis of Novel Aminoindazole-pyrrolo[2,3-b]pyridine Inhibitors of IKKα That Selectively Perturb Cellular Non-Canonical NF-κB Signalling” (Molecules, 2024).
